Results taken from ChEMBL document CHEMBL5465560, “Selectivity Literature for EUbOPEN Chemogenomic Library” (2024).
Blank lines part the entries; values can stand above or below the molecule they belong to.

Tests used:
[1] = molecular target: Tyrosine-protein kinase Srms (Homo sapiens) (UniProt Q9H3Y6); test: Selectivity interaction (Kinase panel (Z-LYTE Assay)) EUB0001632a SRMS; conditions: at 10 µM
[2] = molecular target: T1, Ankyrin repeat and protein kinase domain-containing protein 1 (Homo sapiens) (UniProt Q8NFD2); test: Selectivity interaction (KinomeScan (DiscoverX)) EUB0000607a ANKK1; conditions: at 10 µM
T1 sequence (whole entry): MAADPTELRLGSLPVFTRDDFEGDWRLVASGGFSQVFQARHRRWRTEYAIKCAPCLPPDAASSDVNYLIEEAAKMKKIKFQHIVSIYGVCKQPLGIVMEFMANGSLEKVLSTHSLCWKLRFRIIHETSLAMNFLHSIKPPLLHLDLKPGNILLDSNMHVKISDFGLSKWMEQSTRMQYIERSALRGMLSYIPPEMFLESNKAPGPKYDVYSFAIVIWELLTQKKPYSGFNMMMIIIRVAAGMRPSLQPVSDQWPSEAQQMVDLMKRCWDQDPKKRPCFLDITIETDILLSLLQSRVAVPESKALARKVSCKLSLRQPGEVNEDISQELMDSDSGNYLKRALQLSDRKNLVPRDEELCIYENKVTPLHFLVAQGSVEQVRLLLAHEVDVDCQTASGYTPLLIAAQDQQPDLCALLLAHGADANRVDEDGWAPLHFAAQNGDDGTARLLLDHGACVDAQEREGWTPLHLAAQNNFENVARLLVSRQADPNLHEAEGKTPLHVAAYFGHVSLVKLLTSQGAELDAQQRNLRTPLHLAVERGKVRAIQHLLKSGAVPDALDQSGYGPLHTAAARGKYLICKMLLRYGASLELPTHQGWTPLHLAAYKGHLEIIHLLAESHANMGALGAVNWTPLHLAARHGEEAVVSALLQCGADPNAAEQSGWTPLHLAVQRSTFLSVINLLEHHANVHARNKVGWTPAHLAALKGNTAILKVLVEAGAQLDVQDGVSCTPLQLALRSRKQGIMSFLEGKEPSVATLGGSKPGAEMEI

[3] = molecular target: T2, Serine/threonine-protein kinase pim-1 (Homo sapiens, UniProt P11309); test: Selectivity interaction (KinomeScan (DiscoverX)) EUB0000607a PIM1; conditions: at 10 µM
[4] = molecular target: Mitogen-activated protein kinase 9 (Homo sapiens, UniProt P45984); test: Selectivity interaction (ActivX KiNativ screen (kinase selectivity in THP-1 cell lysates)) EUB0000639a MAPK9; format: subcellular; conditions: lysate, at 0.01 µM
[5] = molecular target: T3, Ribosomal protein S6 kinase alpha-1 (Homo sapiens, UniProt Q15418); test: Selectivity interaction (ActivX KiNativ screen (kinase selectivity in THP-1 cell lysates)) EUB0000639a RPS6KA1; format: subcellular; conditions: lysate, at 0.01 µM
[6] = molecular target: SRSF protein kinase 1 (Homo sapiens, UniProt Q96SB4); test: Selectivity interaction (ActivX KiNativ screen (kinase selectivity in THP-1 cell lysates)) EUB0000639a SRPK1; format: subcellular; conditions: lysate, at 0.2 µM
[7] = molecular target: Protein kinase C theta type (Homo sapiens, UniProt Q04759); test: Selectivity interaction (Ambit KINOMEscan and KiNATiv profiling in Jurkat cells) EUB0000090b PRKCQ; format: cell-based; conditions: at 1 µM
[8] = molecular target: T2, Serine/threonine-protein kinase pim-1; test: Selectivity interaction (KinomeScan (DiscoverX)) EUB0000655a PIM1; conditions: at 10 µM
[9] = molecular target: Casein kinase I isoform alpha (Homo sapiens, UniProt P48729); test: Selectivity interaction (KinomeScan (DiscoverX)) EUB0001079a CSNK1A1; conditions: at 1 µM
[10] = molecular target: Homeodomain-interacting protein kinase 2 (Homo sapiens, UniProt Q9H2X6); test: Selectivity interaction (KinomeScan (DiscoverX)) EUB0001079a HIPK2; conditions: at 1 µM
[11] = molecular target: T4, SNF-related serine/threonine-protein kinase (Homo sapiens) (UniProt Q9NRH2); test: Selectivity interaction (KinomeScan (DiscoverX)) EUB0000092b SNRK; conditions: at 10 µM
T4 sequence (whole entry): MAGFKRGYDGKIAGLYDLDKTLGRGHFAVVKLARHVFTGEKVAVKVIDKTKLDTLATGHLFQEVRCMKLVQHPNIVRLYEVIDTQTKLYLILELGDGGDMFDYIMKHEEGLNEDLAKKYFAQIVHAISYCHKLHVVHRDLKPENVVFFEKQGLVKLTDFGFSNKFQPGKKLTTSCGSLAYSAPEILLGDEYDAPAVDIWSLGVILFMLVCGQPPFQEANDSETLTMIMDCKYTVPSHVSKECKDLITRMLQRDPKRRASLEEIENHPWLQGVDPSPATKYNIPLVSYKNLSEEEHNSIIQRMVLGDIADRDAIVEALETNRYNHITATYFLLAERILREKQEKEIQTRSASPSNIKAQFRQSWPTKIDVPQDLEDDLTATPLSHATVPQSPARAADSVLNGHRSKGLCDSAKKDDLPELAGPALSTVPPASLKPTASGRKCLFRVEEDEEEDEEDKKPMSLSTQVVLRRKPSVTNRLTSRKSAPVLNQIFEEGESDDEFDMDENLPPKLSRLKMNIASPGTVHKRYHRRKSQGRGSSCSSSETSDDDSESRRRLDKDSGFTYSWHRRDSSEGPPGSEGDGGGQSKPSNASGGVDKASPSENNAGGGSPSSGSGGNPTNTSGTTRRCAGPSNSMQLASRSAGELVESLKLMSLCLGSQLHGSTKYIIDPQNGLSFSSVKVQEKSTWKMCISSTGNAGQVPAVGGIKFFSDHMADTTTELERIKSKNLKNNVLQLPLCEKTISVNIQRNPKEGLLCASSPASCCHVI

[12] = molecular target: Ribosomal protein S6 kinase alpha-6 (Homo sapiens, UniProt Q9UK32); conditions: at 10 µM
[13] = molecular target: Mitogen-activated protein kinase 7 (Homo sapiens) (UniProt Q13164); test: Selectivity interaction (KinomeScan (DiscoverX)) EUB0000618a MAPK7; conditions: at 10 µM
[14] = molecular target: Serine/threonine-protein kinase MRCK beta (Homo sapiens) (UniProt Q9Y5S2); test: Selectivity interaction (KinomeScan (DiscoverX)) EUB0001619a CDC42BPB; conditions: at 1 µM
[15] = molecular target: Rho-associated protein kinase 1 (Homo sapiens) (UniProt Q13464); test: Selectivity interaction (ActivX KiNativ screen (ex vivo kinase selectivity in human PBMCs)) EUB0001619a ROCK1; format: cell-based; conditions: PBMC, at 1 µM
[16] = molecular target: T3, Ribosomal protein S6 kinase alpha-1; test: Selectivity interaction (KinomeScan (DiscoverX)) EUB0001619a RPS6KA1; conditions: at 1 µM

T2 sequence (P11309 whole entry, looked up): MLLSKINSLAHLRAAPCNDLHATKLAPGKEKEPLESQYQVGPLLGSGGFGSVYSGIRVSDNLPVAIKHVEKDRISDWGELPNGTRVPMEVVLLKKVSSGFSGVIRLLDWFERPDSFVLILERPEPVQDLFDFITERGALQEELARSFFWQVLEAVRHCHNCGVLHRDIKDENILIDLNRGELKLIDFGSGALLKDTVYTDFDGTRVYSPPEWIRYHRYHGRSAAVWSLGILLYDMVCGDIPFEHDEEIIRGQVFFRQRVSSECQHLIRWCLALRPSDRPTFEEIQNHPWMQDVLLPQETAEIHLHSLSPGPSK
T3 sequence (Q15418 whole entry): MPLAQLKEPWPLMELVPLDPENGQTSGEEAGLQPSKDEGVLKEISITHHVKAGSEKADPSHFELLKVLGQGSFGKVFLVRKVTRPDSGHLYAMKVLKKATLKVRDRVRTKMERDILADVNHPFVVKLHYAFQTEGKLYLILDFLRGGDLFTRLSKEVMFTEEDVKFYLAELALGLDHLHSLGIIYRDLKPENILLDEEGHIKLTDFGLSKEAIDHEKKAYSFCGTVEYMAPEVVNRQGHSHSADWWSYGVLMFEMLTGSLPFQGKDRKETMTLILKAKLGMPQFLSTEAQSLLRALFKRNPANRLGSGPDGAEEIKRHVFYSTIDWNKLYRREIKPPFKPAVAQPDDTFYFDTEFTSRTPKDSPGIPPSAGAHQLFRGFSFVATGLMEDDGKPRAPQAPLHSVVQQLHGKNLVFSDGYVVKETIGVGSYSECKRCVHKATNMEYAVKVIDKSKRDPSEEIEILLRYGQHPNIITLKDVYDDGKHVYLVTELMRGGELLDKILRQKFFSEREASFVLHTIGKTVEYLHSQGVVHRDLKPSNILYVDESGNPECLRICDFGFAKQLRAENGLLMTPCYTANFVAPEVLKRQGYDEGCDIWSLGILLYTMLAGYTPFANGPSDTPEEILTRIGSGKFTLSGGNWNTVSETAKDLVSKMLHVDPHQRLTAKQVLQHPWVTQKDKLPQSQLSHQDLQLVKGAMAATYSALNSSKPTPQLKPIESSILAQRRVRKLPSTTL
Sequence of Protein kinase C theta type (Q04759 whole entry, looked up): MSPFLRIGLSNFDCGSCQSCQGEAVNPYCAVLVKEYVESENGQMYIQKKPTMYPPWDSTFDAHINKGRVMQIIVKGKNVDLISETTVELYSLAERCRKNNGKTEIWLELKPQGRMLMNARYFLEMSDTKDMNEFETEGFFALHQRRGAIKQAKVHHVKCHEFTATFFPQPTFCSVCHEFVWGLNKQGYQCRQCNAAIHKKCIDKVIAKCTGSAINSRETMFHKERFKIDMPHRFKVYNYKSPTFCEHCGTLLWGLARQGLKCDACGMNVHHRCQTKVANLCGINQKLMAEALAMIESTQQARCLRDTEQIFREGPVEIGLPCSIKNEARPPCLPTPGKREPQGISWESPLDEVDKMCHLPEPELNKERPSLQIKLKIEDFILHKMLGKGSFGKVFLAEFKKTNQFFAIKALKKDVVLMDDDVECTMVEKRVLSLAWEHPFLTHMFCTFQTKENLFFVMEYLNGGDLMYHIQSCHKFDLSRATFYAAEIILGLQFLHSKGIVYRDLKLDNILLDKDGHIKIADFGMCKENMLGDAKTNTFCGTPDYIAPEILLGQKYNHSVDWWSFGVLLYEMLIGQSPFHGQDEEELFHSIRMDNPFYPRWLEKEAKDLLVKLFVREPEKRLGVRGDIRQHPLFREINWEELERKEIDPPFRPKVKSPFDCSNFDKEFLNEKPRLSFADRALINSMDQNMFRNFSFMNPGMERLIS
Sequence of SRSF protein kinase 1 (Q96SB4 whole entry): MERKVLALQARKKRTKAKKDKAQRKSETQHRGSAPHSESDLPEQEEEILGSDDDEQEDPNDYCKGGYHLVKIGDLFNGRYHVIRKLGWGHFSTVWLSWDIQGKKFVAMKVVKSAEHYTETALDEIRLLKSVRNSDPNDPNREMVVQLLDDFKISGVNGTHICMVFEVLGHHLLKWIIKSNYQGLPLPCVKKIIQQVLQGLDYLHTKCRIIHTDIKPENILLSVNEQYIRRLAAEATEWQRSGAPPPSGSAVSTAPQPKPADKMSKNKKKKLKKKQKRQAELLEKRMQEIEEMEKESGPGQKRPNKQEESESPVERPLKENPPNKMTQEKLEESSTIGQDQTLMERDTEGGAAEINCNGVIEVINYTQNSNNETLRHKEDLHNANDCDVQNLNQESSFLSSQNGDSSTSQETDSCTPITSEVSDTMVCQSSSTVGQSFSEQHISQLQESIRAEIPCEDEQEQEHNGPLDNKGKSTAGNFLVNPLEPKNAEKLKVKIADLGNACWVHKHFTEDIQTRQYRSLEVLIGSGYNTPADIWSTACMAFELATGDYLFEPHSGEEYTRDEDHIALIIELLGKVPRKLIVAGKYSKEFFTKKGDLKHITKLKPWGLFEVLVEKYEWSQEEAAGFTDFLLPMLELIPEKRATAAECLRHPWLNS
Sequence of Ribosomal protein S6 kinase alpha-6 (Q9UK32 whole entry): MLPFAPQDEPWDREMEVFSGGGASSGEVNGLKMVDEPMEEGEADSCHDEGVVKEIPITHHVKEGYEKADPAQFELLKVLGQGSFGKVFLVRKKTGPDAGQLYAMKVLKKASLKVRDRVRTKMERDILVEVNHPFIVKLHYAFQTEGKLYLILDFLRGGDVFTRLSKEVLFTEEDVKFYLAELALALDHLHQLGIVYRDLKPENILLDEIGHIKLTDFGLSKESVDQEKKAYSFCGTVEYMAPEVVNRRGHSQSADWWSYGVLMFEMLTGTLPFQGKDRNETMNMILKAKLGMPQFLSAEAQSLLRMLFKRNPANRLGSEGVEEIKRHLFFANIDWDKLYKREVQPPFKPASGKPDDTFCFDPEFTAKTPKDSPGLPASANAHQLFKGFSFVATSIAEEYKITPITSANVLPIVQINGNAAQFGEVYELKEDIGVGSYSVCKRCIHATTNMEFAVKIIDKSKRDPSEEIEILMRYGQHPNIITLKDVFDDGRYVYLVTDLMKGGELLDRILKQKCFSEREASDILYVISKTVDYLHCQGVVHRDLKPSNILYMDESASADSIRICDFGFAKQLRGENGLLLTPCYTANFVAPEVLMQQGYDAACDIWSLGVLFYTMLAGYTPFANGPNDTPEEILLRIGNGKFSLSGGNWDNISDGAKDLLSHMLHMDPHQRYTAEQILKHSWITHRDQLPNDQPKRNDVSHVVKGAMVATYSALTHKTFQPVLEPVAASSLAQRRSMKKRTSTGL
Sequence of Tyrosine-protein kinase Srms (Homo sapiens) (Q9H3Y6 whole entry, the tested form may be a part): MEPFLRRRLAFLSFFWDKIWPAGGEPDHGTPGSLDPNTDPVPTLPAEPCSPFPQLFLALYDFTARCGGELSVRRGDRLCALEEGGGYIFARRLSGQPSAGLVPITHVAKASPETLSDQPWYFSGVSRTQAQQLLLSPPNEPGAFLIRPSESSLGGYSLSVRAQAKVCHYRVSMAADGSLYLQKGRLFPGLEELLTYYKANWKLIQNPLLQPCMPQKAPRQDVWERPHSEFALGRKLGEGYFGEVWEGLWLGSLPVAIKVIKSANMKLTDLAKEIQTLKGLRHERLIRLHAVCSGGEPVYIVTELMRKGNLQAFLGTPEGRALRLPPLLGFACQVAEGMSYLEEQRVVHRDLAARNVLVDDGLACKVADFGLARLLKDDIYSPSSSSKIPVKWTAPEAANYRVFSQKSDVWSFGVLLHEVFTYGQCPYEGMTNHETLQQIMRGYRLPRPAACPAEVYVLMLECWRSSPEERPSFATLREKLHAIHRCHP
Sequence of Mitogen-activated protein kinase 7 (Homo sapiens) (Q13164 2-816 limits assumed): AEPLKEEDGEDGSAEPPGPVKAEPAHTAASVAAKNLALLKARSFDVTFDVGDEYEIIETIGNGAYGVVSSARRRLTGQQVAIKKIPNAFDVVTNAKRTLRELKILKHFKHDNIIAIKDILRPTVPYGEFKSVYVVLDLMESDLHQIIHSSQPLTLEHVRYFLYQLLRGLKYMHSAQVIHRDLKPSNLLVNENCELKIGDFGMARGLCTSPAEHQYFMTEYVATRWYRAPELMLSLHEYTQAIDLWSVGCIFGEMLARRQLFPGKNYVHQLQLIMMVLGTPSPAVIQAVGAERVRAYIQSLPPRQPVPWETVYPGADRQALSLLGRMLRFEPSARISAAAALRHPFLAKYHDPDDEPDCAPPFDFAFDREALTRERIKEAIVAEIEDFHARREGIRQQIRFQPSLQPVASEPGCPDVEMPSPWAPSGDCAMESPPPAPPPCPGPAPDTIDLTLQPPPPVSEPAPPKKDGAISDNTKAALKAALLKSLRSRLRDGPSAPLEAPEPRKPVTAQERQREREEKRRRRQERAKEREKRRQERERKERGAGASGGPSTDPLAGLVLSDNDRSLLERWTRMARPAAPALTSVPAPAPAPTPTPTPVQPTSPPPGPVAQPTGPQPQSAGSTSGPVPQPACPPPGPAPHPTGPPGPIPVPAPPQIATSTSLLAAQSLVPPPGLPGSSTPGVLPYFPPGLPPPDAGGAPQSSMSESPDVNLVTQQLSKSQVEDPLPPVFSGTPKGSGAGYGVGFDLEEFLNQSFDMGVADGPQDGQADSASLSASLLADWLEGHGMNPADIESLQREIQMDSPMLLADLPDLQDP
Sequence of Mitogen-activated protein kinase 9 (P45984 whole entry, looked up): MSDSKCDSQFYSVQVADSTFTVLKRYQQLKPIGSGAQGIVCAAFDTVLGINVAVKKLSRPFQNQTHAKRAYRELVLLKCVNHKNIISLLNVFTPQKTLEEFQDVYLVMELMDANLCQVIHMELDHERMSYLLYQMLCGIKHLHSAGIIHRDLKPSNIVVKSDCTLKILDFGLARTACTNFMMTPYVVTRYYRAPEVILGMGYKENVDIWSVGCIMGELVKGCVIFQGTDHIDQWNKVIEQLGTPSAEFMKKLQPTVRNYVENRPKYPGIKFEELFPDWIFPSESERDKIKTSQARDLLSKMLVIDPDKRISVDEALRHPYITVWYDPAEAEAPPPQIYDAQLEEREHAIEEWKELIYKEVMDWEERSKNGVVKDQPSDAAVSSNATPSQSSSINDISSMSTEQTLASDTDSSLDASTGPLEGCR

% of control [1]: -3.87%
Compound: Cn1cc(-n2cnc3c(NCc4nc5cc(Cl)c(Cl)cc5[nH]4)nc(N4CCOCC4)nc32)cn1

Compound: CNC(=O)Nc1ccc(-c2nc(N3CC4CCC(C3)O4)c3cnn(C4CCC5(CC4)OCCO5)c3n2)cc1
% of control [2]: 77% | % of control [3]: 100%

% of inhibition [4]: -10% | % of inhibition [5]: 3.6% | % of inhibition [6]: 0.5%
Compound: CC[C@@H]1[C@H](F)C(=O)N[C@@H]1COc1nccc2cc(C(N)=O)c(OC)cc12 [ZIMLOVISERTIB]

Compound: CN(C)C/C=C/C(=O)Nc1ccc(C(=O)N2CCCC(Nc3ncc(Cl)c(-c4c[nH]c5ccccc45)n3)C2)cc1 (stereo unspecified)
% of control [7]: 100%

Compound: CN(C)CCOc1ccc(-c2nc(-c3ccncc3)c(-c3ccc4c(c3)CC/C4=N\O)[nH]2)cc1
% of control [8]: 86%

Compound: Nc1cnc(N2CCc3cc(S(=O)(=O)Nc4c(F)cc(Cl)cc4F)cc(N4CCCC4=O)c32)nc1 [TP-020n]
% of control [9]: 100% | % of control [10]: 100%

Compound: CCC(=O)N1CCN(c2ccc(-n3c(=O)ccc4cnc5ccc(-c6cnc7ccccc7c6)cc5c43)cc2C(F)(F)F)CC1
% of control [11]: 60%

Compound: Cc1cc([C@@H](C)Nc2ccccc2C(=O)O)c2nc(N3CCOCC3)cc(=O)n2c1 [AZD-6482]
% of control [12]: 100%

Compound: O[C@H]1CC[C@H](Nc2ncc3nc(Nc4c(F)cc(F)cc4F)n([C@H]4CCOC4)c3n2)CC1
% of control [13]: 90%

Compound: N#Cc1cccc(-c2c[nH]c3ncnc(N4CCOCC4)c23)c1
% of control [14]: 83% | % of inhibition [15]: -3% | % of control [16]: 27%
